Our source for the Emax and EC50 values is patent publication US20130204009A1, “PROCESS FOR PREPARING BENZOIC ACID ESTERS” (Daiichi Sankyo Company, Limited, priority 2010, published 2013).

The assay deals with T1, GAL4-PPARγ chimeric receptor (ligand-binding domain of human PPARγ) (Homo sapiens, UniProt P37231).
T1 construct: expressed in transfected cells; host or cells: COS-7 (monkey kidney)
The assay can be described thus: Measurement of PPARγ activation effect/modulator activity (GAL4-PPARγ luciferase reporter assay in COS-7 cells). It counts as cell-based. The conditions noted are these: for Emax: COS-7, maximum luciferase activity, rosiglitazone positive control = 100%, DMSO control = 0%; for EC50: COS-7 cells transfected with pM-PPARγ and pFR-Luc, concentration giving Emax/2. As for the experimental part:
A test was carried out according to the reporter assay method with reference to a report by Kliewer et al. (Journal of Biological Chemistry, 1995, Vol. 270 (22), p. 12953-12956) as a method for measuring the ability of a compound to activate PPARγ (hereinafter PPARγ activation effect/modulator activity). Commercially available reagents and kits were used according to the attached instructions. The details will be shown below.
The ligand-binding domain of human PPARγ (corresponding to about 300 amino acids at the carboxy end) was bound to the DNA-binding domain of the yeast transcription factor GAL4 (corresponding to 147 amino acids at the amino end) with reference to the report by Kliewer et al. to prepare a gene expressing a GAL4-PPARγ receptor.
The plasmid pM-PPARγ obtained by the above operation includes the nucleotide sequence represented by SEQ ID NO: 4 of the Sequence Listing and encodes an amino acid sequence represented by SEQ ID NO: 5 of the Sequence Listing containing amino acids 1 to 147 of the yeast transcription factor GAL4 at the amino end and containing amino acids 175 to 475 of human PPARγ and a stop codon at the carboxy end. The plasmid is a gene that can express a GAL4-PPARγ chimeric receptor in mammalian cells.
The previously acquired plasmid pM-PPARγ and the plasmid pFR-Luc purchased from Stratagene Cloning Systems, Inc. were dissolved in deionised water at a concentration of 1 mg/mL each.
The monkey kidney-derived cell line COS-7 (American Type Culture Collection CRL-1651) was seeded into a 75 cm^2 culture flask and cultured using Dulbecco's modified Eagle's medium containing 10% fetal bovine serum (hereinafter medium) under the conditions of 37° C. and 5% carbon dioxide gas until an approximately 80% confluent state was obtained.
COS-7 cells were transfected with 4.8 micrograms per flask of the plasmid pM-PPARγ and 19.2 μg per flask of the plasmid pFR-Luc using Lipofectamine 2000 transfection reagent (manufactured by Invitrogen Corporation), and the cells were cultured overnight.
On the following day, the cells were harvested by trypsin treatment, suspended in 75 mL of phenol red-free Dulbecco's modified Eagle's medium containing 10% fetal bovine serum, seeded into a white 96-well plate (manufactured by Costar) using the medium in a volume of 95 μL per well, and cultured overnight.
The test compound was dissolved in dimethyl sulfoxide at a concentration of 4 mM. The solution was serially diluted 3.3-fold with dimethyl sulfoxide to prepare solutions of the compound at concentrations up to 400 nM. Dimethyl sulfoxide was prepared for the control group. Rosiglitazone dissolved in dimethyl sulfoxide at a concentration of 4 mM was prepared for the positive control group. They were diluted 20-fold with the medium, and 5 μL of the dilution was added to the wells in which the cells were grown. The concentrations of the test compound treating the cells ranged from 10 μM to 1 nM. After the addition, the cells were cultured overnight.
On the following day, the medium was removed, and Luc Lite (manufactured by PerkinElmer Inc.) was prepared according to the attached document and added at 50 microliters per well. The plate with cells in the Luc Lite was stirred for about 30 minutes. The amount of luminescence in each well was measured as luciferase activity using Analyst (Molecular Devices) for 0.5 second. A dose-dependent curve was drawn.
(A reporter such as luciferase makes a cellular process visible.)

T1 sequence (P37231 with tags, fused parts or gaps): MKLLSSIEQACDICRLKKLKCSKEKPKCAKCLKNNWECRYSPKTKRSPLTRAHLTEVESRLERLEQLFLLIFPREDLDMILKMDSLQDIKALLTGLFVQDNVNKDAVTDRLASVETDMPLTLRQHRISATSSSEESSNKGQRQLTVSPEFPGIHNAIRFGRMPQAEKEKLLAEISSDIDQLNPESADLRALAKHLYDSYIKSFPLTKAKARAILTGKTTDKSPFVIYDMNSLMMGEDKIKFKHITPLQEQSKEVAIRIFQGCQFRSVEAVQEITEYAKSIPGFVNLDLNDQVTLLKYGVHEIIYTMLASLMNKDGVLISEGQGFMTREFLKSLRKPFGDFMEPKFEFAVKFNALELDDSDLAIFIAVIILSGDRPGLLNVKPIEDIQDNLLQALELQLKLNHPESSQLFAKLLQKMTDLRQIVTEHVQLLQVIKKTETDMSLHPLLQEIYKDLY

As a reminder, the Emax is the maximal effect, on the per cent scale that the assay sets. As a reminder, the EC50 is the midpoint of the concentration-response curve. A high value points to a less potent agent. Take `CCc1cc(C)cnc1Oc1ccc2nc(COc3cccc(C(=O)O)c3)n(C)c2c1` [Reference Example 12, 3-({6-[(3-Ethyl-5-methylpyridin-2-yl)oxy]-1-methyl-1H-benzimidazol-2-yl}methoxy)benzoic acid]: the Emax stood at 83% and the midpoint of the response, the EC50, lay at 71000 pM.

Turning to `COc1c(C)cnc(Oc2ccc3nc(COc4cccc(C(=O)O)c4)n(C)c3c2)c1C` [Reference Example 14, 3-({6-[(4-Methoxy-3,5-dimethylpyridin-2-yl)oxy]-1-methyl-1H-benzimidazol-2-yl}methoxy)benzoic acid], the Emax was determined as 67% and the EC50 amounted to 69000 pM.

`Cc1cnc(Oc2ccc3nc(COc4cccc(C(=O)O)c4)n(C)c3c2)c(F)c1` [Reference Example 9, 3-({6-[(3-Fluoro-5-methylpyridin-2-yl)oxy]-1-methyl-1H-benzimidazol-2-yl}methoxy)benzoic acid] had an Emax of 74% and an EC50 of 43000 pM.

As for `CCc1cnc(Oc2ccc3nc(COc4cccc(C(=O)O)c4)n(C)c3c2)c(C)c1` [Reference Example 11, 3-({6-[(5-Ethyl-3-methylpyridin-2-yl)oxy]-1-methyl-1H-benzimidazol-2-yl}methoxy)benzoic acid], the Emax turned out to be 82% and the EC50 was 260000 pM.

For `Cc1cc(F)cnc1Oc1ccc2nc(COc3cccc(C(=O)O)c3)n(C)c2c1` [Reference Example 8, 3-({6-[(5-Fluoro-3-methylpyridin-2-yl)oxy]-1-methyl-1H-benzimidazol-2-yl}methoxy)benzoic acid], the Emax was determined as 100% and the EC50 worked out at 100000 pM.

Compound `Cc1cc(C)c(Oc2ccc3nc(COc4cccc(C(=O)O)c4)n(C)c3c2)nc1C` [Reference Example 15, 3-({1-Methyl-6-[(3,5,6-trimethylpyridin-2-yl)oxy]-1H-benzimidazol-2-yl}methoxy)benzoic acid] yielded an Emax of 94% and an EC50 of 120000 pM.
